{"source": "paper PMC10349806", "about": "(Nature Communications, 2023)", "molecular_target": "PfCRT^Dd2 (Plasmodium falciparum, UniProt Q9N623, A220S/I356T/K76T/M74I/N326S/N75E/Q271E/R371I)", "sequence (Q9N623 whole entry A220S/I356T/K76T/M74I/N326S/N75E/Q271E/R371I)": "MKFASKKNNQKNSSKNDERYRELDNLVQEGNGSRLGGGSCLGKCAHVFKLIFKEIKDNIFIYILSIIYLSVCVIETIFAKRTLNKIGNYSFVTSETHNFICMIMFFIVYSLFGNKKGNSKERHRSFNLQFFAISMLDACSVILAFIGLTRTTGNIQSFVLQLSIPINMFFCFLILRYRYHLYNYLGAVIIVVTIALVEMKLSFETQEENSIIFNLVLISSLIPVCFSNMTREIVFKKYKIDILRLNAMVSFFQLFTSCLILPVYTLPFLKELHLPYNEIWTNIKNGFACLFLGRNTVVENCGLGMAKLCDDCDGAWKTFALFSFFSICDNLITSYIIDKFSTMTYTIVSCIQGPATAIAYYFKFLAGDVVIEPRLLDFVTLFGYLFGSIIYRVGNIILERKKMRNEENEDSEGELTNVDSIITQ", "test": "Drug uptake assay, X. laevis oocytes expressing PfCRT^Dd2", "format": "cell-based", "details": "for v-1 pH 4.5 / v-1 pH 5.0 / v-1 pH 5.5 / v-1 pH 6.0: Lineweaver-Burk", "method": "Oocytes were obtained as described previously. Briefly, adult (>2 years old) female X. laevis frogs (NASCO) were anesthetized in a cooled solution of ethyl 3-amino benzoate methanesulfonate (0.1%, w/v), followed by a surgical removal of parts of the ovary. The ovary lobes were carefully dissected and small pieces of oocytes were incubated in Ca^2+-free ND96 buffer (96 mM NaCl, 2 mM KCl, 1 mM MgCl2 buffered with 5 mM HEPES/NaOH, pH 7.5) supplemented with collagenase D (0.1%, w/v; Roche), BSA (0.5%, w/v), and 9 mm Na2HPO4 at 18 °C for 14-16 h while gentle shaking. After incubation, the oocytes were carefully washed several times with ND96 buffer (96 mM NaCl, 2 mM KCl, 1.8 mM CaCl2, 1 mM MgCl2 buffered with 5 mM HEPES/NaOH, pH 7.5) supplemented with 100 mg l^−1 gentamycin). Defolliculated and healthy-looking stage V-VI oocytes were manually selected for RNA microinjection. The RNA was generated as following: The codon-optimized sequences of PfCRT variants were cloned into the pSP64T expression vector. After vector linearization using the restriction endonucleases BamHI or SalI (New England Biolabs), transcription was performed using the in vitro SP6 mMessage mMachine Kit (Ambion)[34]. The obtained RNA was kept at −80 °C and diluted with nuclease-free water to a concentration of 0.6 μg μl^−1. Precision-bore glass capillary tubes (3.5-inch glass capillaries; Drummond Scientific Co.) were pulled on a vertical puller (P-87 Flaming/Brown micropipette puller, Sutter Instrument Co.), graduated, and placed on a microinjector (Nanoject II Auto-Nanoliter Injector, Drummond Scientific Co.). 50 nl of nuclease-free water alone (control oocytes) or 50 nl of 0.6 μg μl^−1 RNA were injected under stereomicroscopic control. Injected oocytes were incubated for 46–72 h at 18 °C with twice-daily buffer changes before usage in experiments.\nDrug uptake assays were performed as described previously[21],[22],[24],[34]. […] The direction of radio-labeled drug transport is here from the mostly acidic extracellular solution (pH 4.5 or 6.0, as indicated) into the oocyte cytosol (pH ∼ 7.2), which corresponds to the efflux of drug from the acidic digestive vacuole (pH 5.2) into the parasite cytoplasm (pH 7.2). The topology of PfCRT in the oolemma is such that both the N- and C-terminus face the extracellular milieu[3],[22]. In the parasite, the N- and C-terminus face the lumen of the digestive vacuole. […] For determination of the amount of drug uptake for each oocyte, the reaction medium was removed and the oocytes were washed three times with 2 ml of ice-cold ND96 buffer. Each oocyte was individually transferred to a scintillation vial containing 5% sodium dodecyl sulfate (200 μl) for lysis. […] Oocytes that were injected with water instead of RNA were analyzed in parallel, representing the uptake of a drug by diffusion and/or endogenous permeation pathways. The resulting value represents the “background“ level of drug accumulation in oocytes (in-depth discussion in[22]). The specific PfCRT-mediated uptake was determined by subtracting the corresponding background value measured in water-injected oocytes from that of PfCRT-expressing oocytes. In all cases, at least three separate experiments were performed on oocytes from different frogs (biological replicate), and for each condition in an experiment, measurements were made from 10 oocytes per treatment. For pH 5.5, 6.0, and 6.5, ND96 was buffered with 5 mM MES/Tris base. For pH 4.5, 5 mM Homo-Pipes was used as a buffer and 5 mM HEPES for uptake at pH 7.0.", "note": "“And” between values parts separate entries of the source, which are not always exact repeats. Equal values may be shown once."}
{"smiles": "CCN(CC)CCCC(C)Nc1ccnc2cc(Cl)ccc12", "note": "(centres unmarked) [CQ, chloroquine]", "values": [{"measurement": "PfCRTDd2-mediated CQ transport activity", "setting": "300 µM CQ, time 90 min", "result": 21.08, "unit": "pmol oocyte-1"}, {"measurement": "v-1 pH 4.5", "setting": "300 µM CQ", "result": "0.11 (pmol oocyte-1 h-1)-1"}, {"measurement": "v-1 pH 5.0", "setting": "300 µM CQ", "result": "0.09 (pmol oocyte-1 h-1)-1"}, {"measurement": "v-1 pH 5.5", "setting": "300 µM CQ", "result": "0.08 (pmol oocyte-1 h-1)-1"}, {"measurement": "v-1 pH 6.0", "setting": "300 µM CQ", "result": "0.0649 (pmol oocyte-1 h-1)-1"}, {"measurement": "PfCRTDd2 transport activity", "setting": "400 µM CQ, pH 4.5, 60 min", "result": "9.19 pmol oocyte-1 h-1 and 9.21 pmol oocyte-1 h-1 and 9.15 pmol oocyte-1 h-1 and 10.13 pmol oocyte-1 h-1 and 7.52 pmol oocyte-1 h-1 and 9.96 pmol oocyte-1 h-1"}, {"measurement": "PfCRTDd2 transport activity", "setting": "400 µM CQ, pH 5.0, 60 min", "result": 11.32, "unit": "pmol oocyte-1 h-1"}, {"measurement": "PfCRTDd2 transport activity 400 µM CQ pH 5.0", "setting": "400 µM CQ, pH 5.0, individual replicates (Fig 4a)", "result": "11.40 pmol oocyte-1 h-1 and 11.89 pmol oocyte-1 h-1 and 10.67 pmol oocyte-1 h-1"}, {"measurement": "PfCRTDd2 transport activity", "setting": "400 µM CQ, pH 5.5, 60 min", "result": 13.77, "unit": "pmol oocyte-1 h-1"}, {"measurement": "PfCRTDd2 transport activity 400 µM CQ pH 5.5", "setting": "400 µM CQ, pH 5.5, individual replicates (Fig 4a)", "result": "14.89 pmol oocyte-1 h-1 and 13.71 pmol oocyte-1 h-1 and 13.31 pmol oocyte-1 h-1"}, {"measurement": "PfCRTDd2 transport activity", "setting": "400 µM CQ, pH 6.0, 60 min", "result": "19.62 pmol oocyte-1 h-1 and 19.38 pmol oocyte-1 h-1 and 19.10 pmol oocyte-1 h-1 and 20.37 pmol oocyte-1 h-1"}, {"measurement": "PfCRTDd2 transport activity 400 µM CQ pH 6.0", "setting": "400 µM CQ, pH 6.0, individual replicates (Fig 4a)", "result": "19.38 pmol oocyte-1 h-1 and 19.10 pmol oocyte-1 h-1 and 20.37 pmol oocyte-1 h-1"}, {"measurement": "PfCRTDd2-mediated CQ transport activity", "setting": "400 µM CQ, time 0 min", "result": 0.00, "unit": "pmol oocyte-1"}, {"measurement": "PfCRTDd2-mediated CQ transport activity", "setting": "400 µM CQ, time 30 min", "result": 11.37, "unit": "pmol oocyte-1"}, {"measurement": "PfCRTDd2-mediated CQ transport activity", "setting": "400 µM CQ, time 60 min", "result": 18.93, "unit": "pmol oocyte-1"}, {"measurement": "PfCRTDd2-mediated CQ transport activity", "setting": "400 µM CQ, time 90 min", "result": 23.37, "unit": "pmol oocyte-1"}, {"measurement": "v-1 pH 4.5", "setting": "400 µM CQ", "result": "0.11 (pmol oocyte-1 h-1)-1"}, {"measurement": "v-1 pH 5.0", "setting": "400 µM CQ", "result": "0.09 (pmol oocyte-1 h-1)-1"}, {"measurement": "v-1 pH 5.5", "setting": "400 µM CQ", "result": "0.07 (pmol oocyte-1 h-1)-1"}, {"measurement": "v-1 pH 6.0", "setting": "400 µM CQ", "result": "0.05 (pmol oocyte-1 h-1)-1"}, {"measurement": "PfCRTDd2 transport activity", "setting": "500 µM CQ, pH 4.5, 60 min", "result": "9.38 pmol oocyte-1 h-1 and 9.85 pmol oocyte-1 h-1 and 9.73 pmol oocyte-1 h-1 and 10.40 pmol oocyte-1 h-1 and 7.53 pmol oocyte-1 h-1"}, {"measurement": "PfCRTDd2 transport activity 500 µM CQ pH 4.5", "setting": "500 µM CQ, pH 4.5, individual replicates (Fig 4a)", "result": "9.85 pmol oocyte-1 h-1 and 9.73 pmol oocyte-1 h-1 and 10.40 pmol oocyte-1 h-1 and 7.53 pmol oocyte-1 h-1"}, {"measurement": "PfCRTDd2 transport activity", "setting": "500 µM CQ, pH 5.0, 60 min", "result": 11.35, "unit": "pmol oocyte-1 h-1"}, {"measurement": "PfCRTDd2 transport activity 500 µM CQ pH 5.0", "setting": "500 µM CQ, pH 5.0, individual replicates (Fig 4a)", "result": 12.28, "unit": "pmol oocyte-1 h-1"}, {"measurement": "PfCRTDd2 transport activity", "setting": "500 µM CQ, pH 5.5, 60 min", "result": 14.75, "unit": "pmol oocyte-1 h-1"}, {"measurement": "PfCRTDd2 transport activity 500 µM CQ pH 5.5", "setting": "500 µM CQ, pH 5.5, individual replicates (Fig 4a)", "result": "14.32 pmol oocyte-1 h-1 and 15.56 pmol oocyte-1 h-1 and 14.38 pmol oocyte-1 h-1 and 14.75 pmol oocyte-1 h-1"}, {"measurement": "PfCRTDd2 transport activity", "setting": "500 µM CQ, pH 6.0, 60 min", "result": "20.73 pmol oocyte-1 h-1 and 20.81 pmol oocyte-1 h-1 and 20.59 pmol oocyte-1 h-1 and 20.78 pmol oocyte-1 h-1"}, {"measurement": "PfCRTDd2 transport activity 500 µM CQ pH 6.0", "setting": "500 µM CQ, pH 6.0, individual replicates (Fig 4a)", "result": "20.81 pmol oocyte-1 h-1 and 20.59 pmol oocyte-1 h-1 and 20.78 pmol oocyte-1 h-1"}, {"measurement": "PfCRTDd2-mediated CQ transport activity", "setting": "500 µM CQ, time 0 min", "result": 0.00, "unit": "pmol oocyte-1"}, {"measurement": "PfCRTDd2-mediated CQ transport activity", "setting": "500 µM CQ, time 30 min", "result": 18.55, "unit": "pmol oocyte-1"}, {"measurement": "PfCRTDd2-mediated CQ transport activity", "setting": "500 µM CQ, time 60 min", "result": 25.91, "unit": "pmol oocyte-1"}, {"measurement": "PfCRTDd2-mediated CQ transport activity", "setting": "500 µM CQ, time 90 min", "result": 27.18, "unit": "pmol oocyte-1"}, {"measurement": "v-1 pH 4.5", "setting": "500 µM CQ", "result": "0.11 (pmol oocyte-1 h-1)-1"}, {"measurement": "v-1 pH 5.0", "setting": "500 µM CQ", "result": "0.09 (pmol oocyte-1 h-1)-1"}, {"measurement": "v-1 pH 5.5", "setting": "500 µM CQ", "result": "0.07 (pmol oocyte-1 h-1)-1"}]}
